Data taken from publication PMC8607797 (Nature chemical biology, 2021).

Tests used:
Type in all cases: cell-based
[1] = biological target: T1, Ephx1 (Mus musculus, UniProt Q9D379); experiment: live-cell chemoproteomic competition of probe […]
T1 sequence (Q9D379 1-455): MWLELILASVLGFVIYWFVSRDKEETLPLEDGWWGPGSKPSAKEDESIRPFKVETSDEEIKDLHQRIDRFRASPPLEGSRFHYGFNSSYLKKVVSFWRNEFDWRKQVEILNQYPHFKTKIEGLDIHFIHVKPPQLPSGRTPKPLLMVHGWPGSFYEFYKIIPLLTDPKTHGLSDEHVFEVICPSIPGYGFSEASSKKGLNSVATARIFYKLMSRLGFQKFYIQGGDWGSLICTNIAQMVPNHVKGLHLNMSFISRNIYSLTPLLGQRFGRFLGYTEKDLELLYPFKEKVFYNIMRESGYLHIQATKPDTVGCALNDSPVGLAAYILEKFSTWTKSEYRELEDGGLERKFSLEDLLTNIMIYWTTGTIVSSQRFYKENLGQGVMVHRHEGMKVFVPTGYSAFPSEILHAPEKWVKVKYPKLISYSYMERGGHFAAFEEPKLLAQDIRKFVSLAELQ

[2] = biological target: T2, Cav1 (Mus musculus, UniProt P49817); experiment: live-cell chemoproteomic competition of probe […]
T2 sequence (P49817 2-178): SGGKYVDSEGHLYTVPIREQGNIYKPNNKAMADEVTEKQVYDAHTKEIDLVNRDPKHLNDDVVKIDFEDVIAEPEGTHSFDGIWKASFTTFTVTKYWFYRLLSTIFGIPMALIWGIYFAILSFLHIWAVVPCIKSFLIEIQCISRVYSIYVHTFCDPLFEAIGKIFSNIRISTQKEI

[3] = biological target: T3, Tmem97 (σ2 receptor) (Mus musculus, UniProt Q8VD00); experiment: live-cell competition of probe […] labeling, in-gel fluorescence
T3 sequence (Q8VD00 1-176): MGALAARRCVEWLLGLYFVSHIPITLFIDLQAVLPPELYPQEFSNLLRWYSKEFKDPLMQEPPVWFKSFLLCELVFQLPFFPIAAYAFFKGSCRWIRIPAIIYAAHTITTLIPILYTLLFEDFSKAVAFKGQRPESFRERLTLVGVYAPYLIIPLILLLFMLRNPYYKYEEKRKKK

SMILES | live-cell chemoproteomic competition of probe 2 (TMT MS) [1] | live-cell chemoproteomic competition of probe 2 (TMT MS) [2] | live-cell competition of probe 2 labeling, in-gel fluorescence [3] [% competition at 50]
CC(C)CCC[C@](C)(O)[C@H]1CC[C@H]2[C@@H]3CC=C4C[C@@H](O)CC[C@]4(C)[C@H]3CC[C@@]21C [compound 1, 20(S)-hydroxycholesterol] | The most competable proteins encompassed the highly enriched targets Tmem97, Ephx1, and Cav1 | The most competable proteins encompassed the highly enriched targets Tmem97, Ephx1, and Cav1 | –
CC(C)CCC[C@@](C)(O)[C@H]1CC[C@H]2[C@@H]3CC=C4C[C@@H](O)CC[C@]4(C)[C@H]3CC[C@@]21C [compound 13, 20(R)-hydroxycholesterol] | – | – | 50
